Laboratory results: patent publication US20150141433A1, “N-ARYLMETHYL SULFONAMIDE NEGATIVE MODULATORS OF NR2A” (Mnemosyne Pharmaceuticals, Inc., priority 2013, published 2015)
Read-outs that look alike come from different tables or passages of the source.

Target: T1, NR1/NR2A (Homo sapiens, UniProt Q05586+Q12879)
T1 construct: host or cells: HEK293 (tetracycline-inducible NR2A expression)
Assay: FDSS Ca2+ influx inhibition assay in HEK293 cells expressing NR1/NR2A
Format: cell-based
Method: Cell Culture and plating: HEK293 cells expressing NR1/NR2A (Chantest, Cleveland, Ohio) were grown to 70-80% confluency as an adherent monolayer in standard tissue culture flasks at 37° C., 5% CO2 per supplier's instructions.
After induction, cell culture medium was removed and cells were rinsed once with Ca^2+ and Mg^2+-free Dulbecco's phosphate buffered saline. Cells were then removed from the flask using TrypLE™ Express (Life Technologies) according to the manufacturer's instructions and collected to 50 ml centrifuge tubes. Following two washes in Ca^27 Mg^2′-free HBSS with 20 mM HEPES (HHnoCa), cells were counted and viability assessed using trypan blue. To load cells with Ca^2′-sensitive dye, they were resuspended in fluo-8 plus Component B (AAT Bioquest Products) diluted in HHnoCa and incubated 15 minutes at 37° C., followed by 30 minutes at room temp (in dark). Cells were then washed and resuspended in HHnoCa to remove extracellular dye and plated in 384-well plates (Falcon, uncoated) at 20,000-30,000 cells/well in a final volume of 25 μL/well.
FDSS Assay: To each well of the plate, 10 μLtest compound, control (MK801) or HHnoCa buffer was added to a final concentration of 10 μM with a final concentration of DMSO of 0.1%. Following 10 minutes pre-incubation in the dark, plates are loaded onto the Hamamatsu FDSS 6000. After collecting baseline fluorescence images, 3 μM glutamate, 3 μM glycine, and 1 mM Ca^2+ in HHnoCa buffer is added to each well, and Ca^2+ is recorded for 3 minutes. Data were processed by computing ratio of fluorescence at the end of data collection to baseline fluorescence to assess degree of Ca^2+ influx inhibition relative to that observed in MK801.

[1] = 3 μM glutamate, 3 μM glycine, 1 mM Ca2+, Ca2+ influx inhibition relative to MK801, read-out: NR2A IC50

T1 sequence (Q12879 23-1464, other chains not shown): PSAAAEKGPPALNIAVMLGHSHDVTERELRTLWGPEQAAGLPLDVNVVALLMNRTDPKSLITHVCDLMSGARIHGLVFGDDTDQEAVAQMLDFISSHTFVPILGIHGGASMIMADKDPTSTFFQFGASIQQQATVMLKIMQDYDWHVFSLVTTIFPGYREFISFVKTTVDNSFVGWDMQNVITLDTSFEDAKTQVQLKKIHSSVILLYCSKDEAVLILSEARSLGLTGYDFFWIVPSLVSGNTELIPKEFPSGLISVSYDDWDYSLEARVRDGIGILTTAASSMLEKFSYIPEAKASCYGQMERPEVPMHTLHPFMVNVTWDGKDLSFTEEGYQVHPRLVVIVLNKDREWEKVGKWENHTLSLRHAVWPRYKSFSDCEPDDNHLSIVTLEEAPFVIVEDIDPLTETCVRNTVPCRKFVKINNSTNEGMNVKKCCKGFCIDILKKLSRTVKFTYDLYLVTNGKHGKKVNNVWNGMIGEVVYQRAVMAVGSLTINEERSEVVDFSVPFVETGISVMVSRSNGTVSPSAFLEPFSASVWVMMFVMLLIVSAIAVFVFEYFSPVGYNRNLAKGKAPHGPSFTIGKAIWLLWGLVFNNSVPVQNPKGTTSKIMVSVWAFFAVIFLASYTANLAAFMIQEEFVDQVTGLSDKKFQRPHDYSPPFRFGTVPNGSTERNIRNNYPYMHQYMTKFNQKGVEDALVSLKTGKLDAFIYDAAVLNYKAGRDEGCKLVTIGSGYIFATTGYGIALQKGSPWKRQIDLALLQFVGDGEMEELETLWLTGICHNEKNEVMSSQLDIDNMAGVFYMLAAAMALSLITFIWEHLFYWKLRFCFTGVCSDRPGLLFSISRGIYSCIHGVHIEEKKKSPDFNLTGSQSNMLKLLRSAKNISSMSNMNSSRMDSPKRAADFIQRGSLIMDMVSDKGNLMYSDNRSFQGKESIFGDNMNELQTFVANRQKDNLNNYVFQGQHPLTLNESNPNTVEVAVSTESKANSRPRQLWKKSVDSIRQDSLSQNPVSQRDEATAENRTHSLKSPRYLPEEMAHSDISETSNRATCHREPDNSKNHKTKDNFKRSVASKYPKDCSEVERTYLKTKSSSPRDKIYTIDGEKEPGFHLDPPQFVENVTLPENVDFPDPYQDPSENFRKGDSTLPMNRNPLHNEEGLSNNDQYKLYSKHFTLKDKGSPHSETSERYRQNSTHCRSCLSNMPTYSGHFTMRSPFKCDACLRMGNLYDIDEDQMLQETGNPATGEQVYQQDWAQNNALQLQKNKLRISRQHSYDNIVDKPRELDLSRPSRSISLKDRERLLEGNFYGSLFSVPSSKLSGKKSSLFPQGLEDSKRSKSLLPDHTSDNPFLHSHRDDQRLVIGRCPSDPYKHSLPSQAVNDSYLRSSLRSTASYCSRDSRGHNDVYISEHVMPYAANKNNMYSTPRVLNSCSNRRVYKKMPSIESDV

`Cc1ncc(CNC(=O)c2ccc(CNS(=O)(=O)c3c(C)noc3C)cn2)s1` was tested, and the IC50 (binned NR2A inhibition concentration, read-out: Binned Activity) was over 10000 nM.

In the case of `Cc1ncc(CNC(=O)c2cnc(CNS(=O)(=O)c3ccc(Cl)c(Cl)c3)c(C)n2)s1` [5-(3,4-dichlorobenzenesulfon-amidomethyl)-6-methyl-N-[(2-methyl-1,3-thiazol-5-yl)methyl]pyrazine-2-carboxamide], the IC50 [1] is reported as 494 nM.

For `Cc1ncc(CNC(=O)c2ccc(CNS(=O)(=O)c3ccc(Cl)c(Cl)c3)cn2)s1` [5-(3,4-dichlorobenzenesulfon-amidomethyl)-N-[(2-methyl-1,3-thiazol-5-yl)methyl]pyridine-2-carboxamide], the IC50 [1] was 6680 nM.

`Cc1ncc(CNC(=O)c2cnc(CNS(=O)(=O)c3ccc(F)c(F)c3)cn2)s1` [5-(3,4-difluorobenzenesulfon-amidomethyl)-N-[(2-methyl-1,3-thiazol-5-yl)methyl]pyrazine-2-carboxamide] gave an IC50 [1] of 313 nM.

`Cc1ncc(CNC(=O)c2ccc(CNS(=O)(=O)c3ccc(F)c(F)c3)cn2)s1` [5-(3,4-difluorobenzenesulfon-amidomethyl)-N-[(2-methyl-1,3-thiazol-5-yl)methyl]pyridine-2-carboxamide] was tested, and the IC50 [1] was 219 nM.

`Cc1ncc(CNC(=O)c2cnc(CNS(=O)(=O)c3cc(F)cc(F)c3)c(C)n2)s1` [5-(3,5-difluorobenzenesulfon-amidomethyl)-6-methyl-N-[(2-methyl-1,3-thiazol-5-yl)methyl]pyrazine-2-carboxamide] was tested, and the IC50 [1] was 366 nM.

`CCc1nc(C(=O)NCc2cnc(C)s2)cnc1CNS(=O)(=O)c1ccc(F)c(Cl)c1` [5-(3-chloro-4-fluorobenzenesulfon-amidomethyl)-6-ethyl-N-[(2-methyl-1,3-thiazol-5-yl)methyl]pyrazine-2-carboxamide] showed an IC50 [1] of 87.8 nM.

Compound `Cc1ncc(CNC(=O)c2cnc(CNS(=O)(=O)c3ccc(F)c(Cl)c3)c(C)n2)s1` [5-(3-chloro-4-fluorobenzenesulfon-amidomethyl)-6-methyl-N-[(2-methyl-1,3-thiazol-5-yl)methyl]pyrazine-2-carboxamide] has an IC50 [1] of 19.6 nM.

For `O=C(NCc1ccno1)c1ccc(CNS(=O)(=O)c2ccc(F)c(Cl)c2)cn1` [5-(3-chloro-4-fluorobenzenesulfon-amidomethyl)-N-(1,2-oxazol-5-ylmethyl)pyridine-2-carboxamide], the IC50 [1] was 2180 nM.

`O=C(NCc1cnco1)c1ccc(CNS(=O)(=O)c2ccc(F)c(Cl)c2)cn1` [5-(3-chloro-4-fluorobenzenesulfon-amidomethyl)-N-(1,3-oxazol-5-ylmethyl)pyridine-2-carboxamide] was tested, and the IC50 [1] was 1950 nM.

In the case of `O=C(NCc1nccs1)c1ccc(CNS(=O)(=O)c2ccc(F)c(Cl)c2)cn1` [5-(3-chloro-4-fluorobenzenesulfon-amidomethyl)-N-(1,3-thiazol-2-ylmethyl)pyridine-2-carboxamide], the IC50 [1] is reported as 9130 nM.

`O=C(NCc1cncs1)c1cnc(CNS(=O)(=O)c2ccc(F)c(Cl)c2)cn1` [5-(3-chloro-4-fluorobenzenesulfon-amidomethyl)-N-(1,3-thiazol-5-ylmethyl)pyrazine-2-carboxamide] was tested, and the IC50 [1] was 929 nM.

Work on `O=C(NCc1cncs1)c1ccc(CNS(=O)(=O)c2ccc(F)c(Cl)c2)cn1` [5-(3-chloro-4-fluorobenzenesulfon-amidomethyl)-N-(1,3-thiazol-5-ylmethyl)pyridine-2-carboxamide] yielded an IC50 [1] of 347 nM.

`O=C(NCc1cnccn1)c1cnc(CNS(=O)(=O)c2ccc(F)c(Cl)c2)cn1` [5-(3-chloro-4-fluorobenzenesulfon-amidomethyl)-N-(pyrazin-2-ylmethyl)pyrazine-2-carboxamide] was tested, and the IC50 [1] was 2100 nM.

For `O=C(NCc1cnccn1)c1ccc(CNS(=O)(=O)c2ccc(F)c(Cl)c2)cn1` [5-(3-chloro-4-fluorobenzenesulfon-amidomethyl)-N-(pyrazin-2-ylmethyl)pyridine-2-carboxamide], the IC50 [1] was 1690 nM.

In the case of `O=C(NCc1cccnc1)c1cnc(CNS(=O)(=O)c2ccc(F)c(Cl)c2)cn1` [5-(3-chloro-4-fluorobenzenesulfon-amidomethyl)-N-(pyridin-3-ylmethyl)pyrazine-2-carboxamide], the IC50 [1] is reported as 439 nM.

With `O=C(NCc1cccnc1)c1ccc(CNS(=O)(=O)c2ccc(F)c(Cl)c2)cn1` [5-(3-chloro-4-fluorobenzenesulfon-amidomethyl)-N-(pyridin-3-ylmethyl)pyridine-2-carboxamide] the IC50 [1] was 758 nM.

Work on `O=C(NCc1ccncc1)c1cnc(CNS(=O)(=O)c2ccc(F)c(Cl)c2)cn1` [5-(3-chloro-4-fluorobenzenesulfon-amidomethyl)-N-(pyridin-4-ylmethyl)pyrazine-2-carboxamide] yielded an IC50 [1] of 1700 nM.

`O=C(NCc1cncnc1)c1cnc(CNS(=O)(=O)c2ccc(F)c(Cl)c2)cn1` [5-(3-chloro-4-fluorobenzenesulfon-amidomethyl)-N-(pyrimidin-5-ylmethyl)pyrazine-2-carboxamide] was tested, and the IC50 [1] was 4840 nM.

In the case of `O=C(NCc1cncnc1)c1ccc(CNS(=O)(=O)c2ccc(F)c(Cl)c2)cn1` [5-(3-chloro-4-fluorobenzenesulfon-amidomethyl)-N-(pyrimidin-5-ylmethyl)pyridine-2-carboxamide], the IC50 [1] is reported as 7390 nM.

`Cc1ncc(C(C)NC(=O)c2cnc(CNS(=O)(=O)c3ccc(F)c(Cl)c3)cn2)s1` (centres unmarked) [5-(3-chloro-4-fluorobenzenesulfon-amidomethyl)-N-[1-(2-methyl-1,3-thiazol-5-yl)ethyl]pyrazine-2-carboxamide] was tested, and the IC50 [1] was 180 nM.

Work on `CC(NC(=O)c1ccc(CNS(=O)(=O)c2ccc(F)c(Cl)c2)cn1)c1ccco1` (centres unmarked) [5-(3-chloro-4-fluorobenzenesulfon-amidomethyl)-N-[1-(furan-2-yl)ethyl]pyridine-2-carboxamide] yielded an IC50 [1] of 5510 nM.

Compound `CC(NC(=O)c1ccc(CNS(=O)(=O)c2ccc(F)c(Cl)c2)cn1)c1cccs1` (centres unmarked) [5-(3-chloro-4-fluorobenzenesulfon-amidomethyl)-N-[1-(thiophen-2-yl)ethyl]pyridine-2-carboxamide] has an IC50 [1] of 2400 nM.

Work on `Cc1ccc(CNC(=O)c2cnc(CNS(=O)(=O)c3ccc(F)c(Cl)c3)cn2)n1C` [5-(3-chloro-4-fluorobenzenesulfon-amidomethyl)-N-[(1,5-dimethyl-1H-pyrrol-2-yl)methyl]pyrazine-2-carboxamide] yielded an IC50 [1] of 757 nM.

Work on `Cn1cncc1CNC(=O)c1cnc(CNS(=O)(=O)c2ccc(F)c(Cl)c2)cn1` [5-(3-chloro-4-fluorobenzenesulfon-amidomethyl)-N-[(1-methyl-1H-imidazol-5-yl)methyl]pyrazine-2-carboxamide] yielded an IC50 [1] of 8950 nM.

Compound `Cn1cncc1CNC(=O)c1ccc(CNS(=O)(=O)c2ccc(F)c(Cl)c2)cn1` [5-(3-chloro-4-fluorobenzenesulfon-amidomethyl)-N-[(1-methyl-1H-imidazol-5-yl)methyl]pyridine-2-carboxamide] has an IC50 [1] of 8360 nM.

Compound `Cn1cc(CNC(=O)c2ccc(CNS(=O)(=O)c3ccc(F)c(Cl)c3)cn2)cn1` [5-(3-chloro-4-fluorobenzenesulfon-amidomethyl)-N-[(1-methyl-1H-pyrazol-4-yl)methyl]pyridine-2-carboxamide] has an IC50 [1] of 4590 nM.

For `Cn1cccc1CNC(=O)c1cnc(CNS(=O)(=O)c2ccc(F)c(Cl)c2)cn1` [5-(3-chloro-4-fluorobenzenesulfon-amidomethyl)-N-[(1-methyl-1H-pyrrol-2-yl)methyl]pyrazine-2-carboxamide], the IC50 [1] was 3090 nM.

Compound `Cn1cccc1CNC(=O)c1ccc(CNS(=O)(=O)c2ccc(F)c(Cl)c2)cn1` [5-(3-chloro-4-fluorobenzenesulfon-amidomethyl)-N-[(1-methyl-1H-pyrrol-2-yl)methyl]pyridine-2-carboxamide] has an IC50 [1] of 2550 nM.

`C[C@@H](NC(=O)c1cnc(CNS(=O)(=O)c2ccc(F)c(Cl)c2)cn1)c1cncs1` [5-(3-chloro-4-fluorobenzenesulfon-amidomethyl)-N-[(1R)-1-(1,3-thiazol-5-yl)ethyl]pyrazine-2-carboxamide] gave an IC50 [1] of 10500 nM.

`COc1cc(CNC(=O)c2cnc(CNS(=O)(=O)c3ccc(F)c(Cl)c3)cn2)ccn1` [5-(3-chloro-4-fluorobenzenesulfon-amidomethyl)-N-[(2-methoxypyridin-4-yl)methyl]pyrazine-2-carboxamide] gave an IC50 [1] of 850 nM.

With `COc1cc(CNC(=O)c2ccc(CNS(=O)(=O)c3ccc(F)c(Cl)c3)cn2)ccn1` [5-(3-chloro-4-fluorobenzenesulfon-amidomethyl)-N-[(2-methoxypyridin-4-yl)methyl]pyridine-2-carboxamide] the IC50 [1] was 3020 nM.

`Cc1ncc(CNC(=O)c2cnc(CNS(=O)(=O)c3ccc(F)c(Cl)c3)c(C(F)(F)F)n2)s1` [5-(3-chloro-4-fluorobenzenesulfon-amidomethyl)-N-[(2-methyl-1,3-thiazol-5-yl)methyl]-6-(trifluoromethyl)pyrazine-2-carboxamide] showed an IC50 [1] of 169 nM.

`Cc1ncc(CNC(=O)c2ccc(CNS(=O)(=O)c3ccc(F)c(Cl)c3)cn2)s1` [5-(3-chloro-4-fluorobenzenesulfon-amidomethyl)-N-[(2-methyl-1,3-thiazol-5-yl)methyl]pyridine-2-carboxamide] showed an IC50 [1] of 204 nM.

With `COc1cccc(CNC(=O)c2ccc(CNS(=O)(=O)c3ccc(F)c(Cl)c3)cn2)c1` [5-(3-chloro-4-fluorobenzenesulfon-amidomethyl)-N-[(3-methoxyphenyl)methyl] pyridine-2-carboxamide] the IC50 [1] was 3370 nM.
